Columns and labels:
cathepsin B = cathepsin B (Rattus norvegicus, UniProt P00787); test: In vitro assay for cathepsin B inhibition; assay type: biochemical; conditions: r rat cathepsin B; pH 5.1; 10 min incubation at room temperature; substrate N-CBZ-Phe-Arg-AMC (5 mM, 20 μl)
Procedure: The compounds of formula I were tested for inhibition of cathepsin B using the known method (A. J. Barret et al., Biochem. J. 1982, 201, 189-198). To a 170 μl of enzyme-buffer mixture (enzyme: r rat cathepsin B, diluted to give approximate 10 F units/min, buffer: 56 mM sodium acetate, 1.124 mM EDTA, 10 mM DTT, pH 5.1) a 10 μL of inhibitor (dissolved in DMSO) was added. After 10 min of incubation at room temperature, a 20 μl of 5 mM substrate (N-CBZ-Phe-Arg-AMC, dissolved in DMSO) was added to initiate reaction. Reading is followed up for 10 min at the fluoroscan reader (excitation at 380 nm emission at 460 nm).
(§1) A plot of percentage of inhibition vs inhibitor concentration is obtained, and IC50 is determined using a linear regression calculation (concentration of inhibitor which will give 50% inhibition).

cathepsin L = cathepsin L (Rattus norvegicus, UniProt P07154); test: In vitro assay for cathepsin L inhibition; assay type: biochemical; conditions: r rat cathepsin L; pH 5.0; 10 min incubation at room temperature; substrate N-CBZ-Phe-Arg-AMC (1 mM, 20 μl)
Procedure: To a 170 μl of enzyme-buffer mixture (enzyme: r rat cathepsin L, diluted to give approximate 15 F units/min, buffer: 58.8 mM sodium citrate, 1.18 mM EDTA, 235 mM sodium chloride, 5 mM DTT, pH 5.0) a 10 μL of inhibitor (dissolved in DMSO) was added. After 10 min of incubation at room temperature, a 20 μl of 1 mM substrate (N-CBZ-Phe-Arg-AMC, dissolved in DMSO) was added to initiate reaction. Reading is followed up for 10 min at the fluoroscan reader (excitation at 380 nm emission at 460 nm).
as §1

Chain of cathepsin L (P07154 114-334): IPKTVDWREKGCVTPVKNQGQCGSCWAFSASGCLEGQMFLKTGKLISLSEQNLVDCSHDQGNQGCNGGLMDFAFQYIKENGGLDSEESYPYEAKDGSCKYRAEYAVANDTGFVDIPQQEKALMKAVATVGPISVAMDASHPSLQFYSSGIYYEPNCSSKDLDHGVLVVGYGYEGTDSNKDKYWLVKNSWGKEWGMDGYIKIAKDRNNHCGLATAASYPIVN
Chain of cathepsin B (P00787 80-333 limits assumed): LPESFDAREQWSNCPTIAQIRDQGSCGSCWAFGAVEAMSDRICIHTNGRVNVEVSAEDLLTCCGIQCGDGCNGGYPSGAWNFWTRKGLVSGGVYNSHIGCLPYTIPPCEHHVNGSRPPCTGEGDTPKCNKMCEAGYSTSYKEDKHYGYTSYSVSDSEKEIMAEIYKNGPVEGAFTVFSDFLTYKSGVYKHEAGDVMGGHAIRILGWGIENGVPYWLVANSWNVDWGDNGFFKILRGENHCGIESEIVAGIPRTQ

O=C(N[C@@H](Cc1ccc2ccccc2c1)C(=O)N[C@@H]1C(=O)N[C@H]1Oc1ccccc1)OCc1ccccc1 [Example 11, (3S,4S)-3-{N-benzyloxycarbonyl-β-(2-naphthyl)-L-alanyl}-amino-4-phenoxy-azetidin-2-one]
IC50 (cathepsin B): 900 nM | IC50 (cathepsin L): 15 nM

CC(C)(C)C[C@H](NC(=O)CCc1ccccc1)C(=O)N[C@@H]1C(=O)N[C@H]1Oc1ccccc1 [Example 28, (3S, 4S)-3-[2S-2-(3-phenylpropionoyl)amino-2-t-butylmethyl-acetamido]-4-phenoxy-azetidin-2-one]
IC50 (cathepsin B): 45000 nM | IC50 (cathepsin L): 11400 nM

CC(C)(C)[C@H](NC(=O)CCc1ccccc1)C(=O)N[C@@H]1C(=O)N[C@H]1Oc1ccccc1 [Example 29, (3S, 4S)-3-[2S-2-(3-phenylpropionoyl)amino-2-t-butyl-acetamido]-4-phenoxy-azetidin-2-one]
IC50 (cathepsin B): > 50000 nM | IC50 (cathepsin L): > 50000 nM

O=C(CCc1ccccc1)N[C@@H](Cc1ccc2ccccc2c1)C(=O)N[C@@H]1C(=O)NC1OCc1ccccc1 (stereo partly drawn) [Example 18, (3S,4SR)-3{N-(3-phenylpropionoyl)-β-(2-naphthyl)-L-alanyl}-amino-4-benzyloxy-azetidin-2-one]
IC50 (cathepsin B): 1920 nM | IC50 (cathepsin L): 76.7 nM

O=C(N[C@@H](Cc1ccc2ccccc2c1)C(=O)N[C@@H]1C(=O)N[C@H]1Oc1ccc2ccccc2c1)OCc1ccccc1 [Example 13A, (3S,4S)-3-{N-benzyloxycarbonyl-β-(2-naphthyl)-L-alanyl}amino-4-(2-naphthoxy)-azetidin-2-one]
IC50 (cathepsin B): 1800 nM | IC50 (cathepsin L): 2.9 nM

CC(=O)O[C@@H]1NC(=O)[C@H]1NC(=O)[C@H](Cc1cccc(F)c1)NC(=O)OCc1ccccc1 [Example 9, (3S,4S)-3-{N-benzyloxycarbonyl-β-(3-fluorophenyl)-L-alanyl}-amino-4-acetoxy-azetidin-2-one]
IC50 (cathepsin B): 18800 nM | IC50 (cathepsin L): 341 nM

CC(=O)O[C@@H]1NC(=O)[C@H]1NC(=O)C1Cc2ccccc2N1C(=O)OCc1ccccc1 (stereo partly drawn) [Example 1, (3S,4S)-3-(1 -N-benzyloxycarbonyl-2-indolinecarbonyl)-amino-4-acetoxy-azetidin-2-one]
IC50 (cathepsin B): > 50000 nM | IC50 (cathepsin L): 26700 nM

Cc1cccc(O[C@@H]2NC(=O)[C@H]2NC(=O)[C@H](Cc2ccc3ccccc3c2)NC(=O)OCc2ccccc2)c1 [Example 12A, (3S,4S)-3{N-benzyloxycarbonyl-β-(2-naphthyl)-L-alanyl}-amino-4-(3-methylphenoxy)-azetidin-2-one]
IC50 (cathepsin B): 380 nM | IC50 (cathepsin L): 3 nM

CC(C)(C)C[C@H](NC(=O)OCc1ccccc1)C(=O)N[C@@H]1C(=O)N[C@H]1Oc1ccccc1 [Example 27, (3S, 4S)-3-(2S-2-benzyloxycarbonylamino-2-t-butylmethyl-acetamido)-4-phenoxy-azetidin-2-one]
IC50 (cathepsin B): 23000 nM | IC50 (cathepsin L): 2300 nM

CC(=O)O[C@@H]1NC(=O)[C@H]1NC(=O)[C@H](Cc1ccc2ccccc2c1)NC(=O)OCc1ccccc1 [Example 8, (3S,4S)-3-(N-benzyloxycarbonyl-β-(2-naphthyl)-L-alanyl)-amino-4-acetoxy-azetidin-2-one]
IC50 (cathepsin B): 16400 nM | IC50 (cathepsin L): 13.5 nM

CC(=O)O[C@@H]1NC(=O)[C@H]1NC(=O)[C@H](Cc1ccc2ccccc2c1)NC(=O)NCc1ccccc1 [Example 21, (3S,4S)-3-{N-(benzylaminocarbonyl)-β-(2-naphthyl)-L-alanyl}-amino-4-acetoxy-azetidin-2-one]
IC50 (cathepsin B): 2200 nM | IC50 (cathepsin L): 10 nM

O=C(CCc1ccccc1)N[C@@H](Cc1ccc2c(c1)OCCO2)C(=O)N[C@@H]1C(=O)N[C@H]1Oc1ccccc1 [Example 31]
IC50 (cathepsin B): 9700 nM | IC50 (cathepsin L): 80 nM

O=C(CCc1ccccc1)NC(Cc1ccc2ccccc2c1)C(=O)NC1C(=O)NC1S(=O)(=O)c1ccccc1 [Example 16, (3S,4SR)-3-{N-(3-phenylpropionoyl)-β-(2-naphthyl)-L-alanyl}-amino-4-phenylsulfonyl-azetidin-2-one]
IC50 (cathepsin B): 1600 nM | IC50 (cathepsin L): 8.6 nM

O=C(CCc1ccccc1)NC(Cc1ccc2ccccc2c1)C(=O)NC1C(=O)NC1SCCO [Example 17, (3S,4SR)-3-{N-(3-phenylpropionoyl)-β-(2-naphthyl)-L-alanyl}-amino-4-(2-hydroxyethylthio)-azetidin-2-one]
IC50 (cathepsin B): 10100 nM | IC50 (cathepsin L): 400 nM

O=C(CCc1ccccc1)NC(Cc1ccc2ccccc2c1)C(=O)NC1C(=O)NC1Sc1ccccc1 [Example 15, (3S,4SR)-3-{N-(3-phenylpropionoyl)-β-(2-naphthyl)-L-alanyl}-amino-4-phenylthio-azetidin-2-one]
IC50 (cathepsin B): 1910 nM | IC50 (cathepsin L): 6.1 nM

CC(=O)O[C@@H]1NC(=O)[C@H]1NC(=O)[C@H](CCCN=C(N)N[N+](=O)[O-])NC(=O)CCc1ccccc1 [Example 24, (3S,4S)-3-{N^α -(3-phenylpropionyl)-N-nitro-L-arginyl}-amino-4-acetoxy-azetidin-2-one]
IC50 (cathepsin B): 31400 nM | IC50 (cathepsin L): 16.8 nM

O=C(N[C@@H](Cc1ccc2ccccc2c1)C(=O)N[C@@H]1C(=O)N[C@@H]1Oc1ccc2ccccc2c1)OCc1ccccc1 [Example 13B, (3S,4R)-3-{N-benzyloxycarbonyl-β-(2-naphthyl)-L-alanyl}-amino-4-(2-naphthoxy)-azetidin-2-one]
IC50 (cathepsin B): 71.5 nM | IC50 (cathepsin L): 0.11 nM

CC(=O)O[C@@H]1NC(=O)[C@H]1NC(=O)C(Cc1cccs1)NC(=O)OCc1ccccc1 (mixture of isomers) [Example 7, (3S,4S)-3-(N-benzyloxycarbonyl-β-(2-thienyl)-DL-alanyl)-amino-4-acetoxy-azetidin-2-one]
IC50 (cathepsin B): 28600 nM | IC50 (cathepsin L): 2320 nM

CC(OC(C)(C)C)[C@H](NC(=O)OCc1ccccc1)C(=O)N[C@@H]1C(=O)N[C@@H]1Oc1ccccc1 (stereo partly drawn) [Example 26, (3S, 4R)-3-[2S-2-benzyloxycarbonylamino-2-(1-t-butyloxyethyl)-acetamido]-4-phenoxy-azetidin-2-one]
IC50 (cathepsin B): > 50000 nM | IC50 (cathepsin L): 10700 nM

O=C(N[C@@H](Cc1ccc2ccccc2c1)C(=O)N[C@@H]1C(=O)N[C@@H]1Oc1cccc(N2CCOCC2)c1)OCc1ccccc1 [Example 14B, (3S,4R)-3-{N-benzyloxycarbonyl-β-(2-naphthyl)-L-alanyl}-amino-4-{3-(morpholin-4-yl)-phenoxy}-azetidin-2-one]
IC50 (cathepsin B): 340 nM | IC50 (cathepsin L): 0.5 nM

Cc1cccc(O[C@H]2NC(=O)[C@H]2NC(=O)[C@H](Cc2ccc3ccccc3c2)NC(=O)OCc2ccccc2)c1 [Example 12B, (3S,4R)-3-{N-benzyloxycarbonyl-β-(2-naphthyl)-L-alanyl}-amino-4-(3-methylphenoxy)-azetidin-2-one]
IC50 (cathepsin B): 80 nM | IC50 (cathepsin L): 0.4 nM

O=C(N[C@@H](Cc1ccc2ccccc2c1)C(=O)N[C@@H]1C(=O)N[C@H]1Oc1cccc(N2CCOCC2)c1)OCc1ccccc1 [Example 14A, (3S,4S)-3-{N-benzyloxycarbonyl-β-(2-naphthyl)-L-alanyl}amino-4-{3-(morpholin-4-yl)-phenoxy}-azetidin-2-one]
IC50 (cathepsin B): 1700 nM | IC50 (cathepsin L): 2.7 nM

CC(C)(C)OC[C@H](NC(=O)OCc1ccccc1)C(=O)N[C@@H]1C(=O)N[C@@H]1Oc1ccccc1 [Example 25, (3S,4R)-3-(2S-2-benzyloxycarbonylamino-2-t-butyloxymethyl-acetamido)-4-phenoxy-azetidin-2-one]
IC50 (cathepsin B): 11000 nM | IC50 (cathepsin L): 2190 nM

CC(=O)O[C@@H]1NC(=O)[C@H]1NC(=O)[C@H](CCc1ccccc1)NC(=O)OCc1ccccc1 [Example 4, (3S,4S)-3-(N-benzyloxycarbonyl-L-homophenylalanyl)-amino-4-acetoxy-azetidin-2-one]
IC50 (cathepsin B): > 50000 nM | IC50 (cathepsin L): 11400 nM

CC(=O)O[C@@H]1NC(=O)[C@H]1NC(=O)[C@H](NC(=O)OCc1ccccc1)c1ccccc1 [Example 2, (3S,4S)-3-(N-benzyloxycarbonyl-D-phenylglycyl)-amino-4-acetoxy-azetidin-2-one]
IC50 (cathepsin B): > 50000 nM | IC50 (cathepsin L): > 50000 nM

CC(=O)O[C@@H]1NC(=O)[C@H]1NC(=O)C(NC(=O)OCc1ccccc1)c1ccccc1 (mixture of isomers) [Example 3, (3S,4S)-3-(N-benzyloxycarbonyl-DL-phenylglycyl)-amino-4-acetoxy-azetidin-2-one]
IC50 (cathepsin B): > 50000 nM | IC50 (cathepsin L): 43100 nM

N[C@@H](Cc1ccc(OC2NC(=O)[C@H]2NC(=O)[C@H](Cc2ccc3ccccc3c2)NC(=O)NCc2ccccc2)cc1)C(=O)O (stereo partly drawn) [Example 22, (3S,4SR)-3-{N-(benzylaminocarbonyl)-β-(2-naphthyl)-L-alanyl}-amino-4-{4-(2S-2-amino-2-carboxy-ethyl)-phenoxy}-azetidin-2-one]
IC50 (cathepsin B): 8400 nM | IC50 (cathepsin L): 13 nM

COc1ccc(C[C@H](NC(=O)CCc2ccccc2)C(=O)N[C@@H]2C(=O)N[C@H]2Oc2ccccc2)cc1OC [Example 30, (3S, 4s)-3-[2S-2-(3-phenylpropionoyl)amino-2-(3,4-dimethoxyphenyl)methyl-acetamido]-4-phenoxy-azetidin-2-one]
IC50 (cathepsin B): 48000 nM | IC50 (cathepsin L): 1600 nM

— US5959123A, “3,4-Disubstituted azetidin-2-one derivatives useful as cysteine proteinase regulators” (Synphar Laboratories, Inc., priority 1997, dated 1999)
